{"source": "patent US12202853B2", "about": "“Epoxide polyene amphoteric macrolide and process for purifying natamycin” (DSM IP ASSETS B.V., priority 2018, dated 2025)", "origin": "cited, not measured here", "note": "Where two headings read alike, the source gives them in different places."}
{"substance": "Natamycin", "values": [{"measurement": "solubility of natamycin in water", "setting": "neutral pH", "result": "around 40 mg/L"}, {"measurement": "solubility of natamycin in water", "setting": "neutral pH values, also printed as 40 ppm", "result": "around 0.04 g/L"}]}
